Experimental data reported in publication PMC8151276, “An Integrated Approach toward NanoBRET Tracers for Analysis of GPCR Ligand Engagement” (Molecules, 2021).

Key:
GHSR = molecular target: T1, GHSR (Homo sapiens, UniProt Q92847); experiment: NanoBRET screen HiBiT-GHSR in HEK293; type: binding
T1 construct: purchased Promega (in-house HiBiT-GPCR construct library, NanoBRET)
Method: (§1) Each tracer candidate was screened across the entire library of HiBiT-GPCR constructs using NanoBRET as the detection modality. As depicted in Figure 4A, the specificity of interactions was evaluated through decrease in BRET due to competitive displacement of a bound tracer by excess parental compound. Each tracer was analyzed for binding to each HiBiT-GPCR fusion in the absence and in the presence of competing parental compound. Briefly, HEK293 cells were transfected with HiBiT-GPCR constructs diluted into promoterless DNA to reduce expression and maximize translocation to the cell surface. Each tracer candidate was then screened at concentrations of 1 μM and 0.1 μM across cells expressing these fusions. Cells were treated for 1.5 h with tracer either alone or in the presence of 20 μM competing parental compound (i.e., control). BRET was measured upon addition of purified LgBiT and subsequent complementation with HiBiT genetically fused to a GPCR. The specificity of interactions was assessed through a decrease in BRET signal due to competitive displacement of the bound tracer. To further gauge the robustness of these interactions, the fold response over the control (i.e., BRETtracer/BRETcontrol) was calculated. We chose a 1.5-fold response, which translates to ≥7-fold signal over noise as the minimal threshold required to score an interaction as positive. […]. Below we highlight the screening results obtained for our exemplary fluorescent tracers based on Clozapine, Amitriptyline and AZD1283.
(§2) HiBiT-GPCR DNA constructs were diluted in 10 mM Tris pH 8 to a final concentration of 0.01 μg/μL, arrayed in 96-well plates and stored at −20 °C. For transfection, HEK293 cells were suspended in Opti-MEM (without phenol red) supplemented with 2% fetal bovine serum (Seradigm) and 100 units/mL penicillin–streptomycin (Gibco) at a final concentration of 220,000 cells/mL and dispensed into white 96-well plates at 90 μL/well. Subsequent transfections and screens were carried using an Agilent Bravo Automated Liquid Handling Platform. First, the 96-well HiBiT DNA arrays were diluted 25-fold in Opti-MEM (without serum or phenol red) to a final concentration of 0.0004 μg/μL and 20 μL of the diluted DNAs were transferred into new 96-well plates. Next, promoterless carrier DNA (1 μg/μL) was diluted 25-fold (0.04 μg/μL) and then dispensed into the diluted arrays at 20 μL/well. Following brief mixing, Viafect transfection reagent (Promega) diluted 16-fold into Opti-MEM was dispensed into the plates at 40 μL/well. After mixing by pipetting, plates were incubated for 10 min on the pipetting station deck. The DNA-transfection reagent complexes were then added to plates containing cells. To facilitate the screen, 10 μL of DNA-transfection reagent complexes were added in duplicates to the top 4 and bottom 4 rows, resulting in two identical 48-well arrays per plate. Plates with transfected cells were incubated for 18–20 h at 37 °C/5% CO2. A screen of each tracer across the entire library using two different concentrations requires duplicate plates of transfected cells. Depending on the number of tracers being screened, transfections can be scaled up using the same ratios. The next day, for each tracer, four 20× screening solutions in tracer dilution buffer (Promega) were prepared: two duplicates at final concentration of 20 μM and two duplicates at a final concentration of 2 μM. A competing unmodified compound was added to one of each duplicate at a final concentration of 400 μM. The four resulting solutions were diluted 4-fold in Opti-MEM without serum or phenol red to generate 5× solutions (5 µM and 0.5 µM tracer +/− 100 μM competing compound). To screen the library, a BioTek MultiFlo FX liquid dispenser was used to dispense 22.5 µL of tracer solution to the top 4 rows and 22.5 µL tracer + competing compound solution to the 4 bottom rows. Plates were briefly mixed on an orbital shaker and incubated for 1.5 h at room temperature. […]

FPR3 = molecular target: T2, FPR3 (Homo sapiens, UniProt P25089); experiment: NanoBRET screen HiBiT-FPR3 in HEK293; type: binding
T2 construct: purchased Promega (in-house HiBiT-GPCR construct library, NanoBRET)
T2 sequence (P25089 1-353): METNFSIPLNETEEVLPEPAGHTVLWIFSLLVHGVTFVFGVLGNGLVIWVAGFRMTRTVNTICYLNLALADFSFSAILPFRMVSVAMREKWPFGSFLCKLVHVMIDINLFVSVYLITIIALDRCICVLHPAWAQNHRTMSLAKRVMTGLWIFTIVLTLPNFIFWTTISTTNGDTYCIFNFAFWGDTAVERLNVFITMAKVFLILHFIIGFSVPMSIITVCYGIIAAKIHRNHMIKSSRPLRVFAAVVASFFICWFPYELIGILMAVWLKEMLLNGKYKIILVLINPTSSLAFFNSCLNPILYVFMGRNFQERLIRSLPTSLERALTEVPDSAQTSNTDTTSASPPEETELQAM
Method: as §1, §2

[1] = tracer at 0.1μM, listed as amitriptyline-b-2-NB590
[2] = tracer at 1μM, listed as amitriptyline-b-2-NB590

T1 sequence (Q92847 whole entry): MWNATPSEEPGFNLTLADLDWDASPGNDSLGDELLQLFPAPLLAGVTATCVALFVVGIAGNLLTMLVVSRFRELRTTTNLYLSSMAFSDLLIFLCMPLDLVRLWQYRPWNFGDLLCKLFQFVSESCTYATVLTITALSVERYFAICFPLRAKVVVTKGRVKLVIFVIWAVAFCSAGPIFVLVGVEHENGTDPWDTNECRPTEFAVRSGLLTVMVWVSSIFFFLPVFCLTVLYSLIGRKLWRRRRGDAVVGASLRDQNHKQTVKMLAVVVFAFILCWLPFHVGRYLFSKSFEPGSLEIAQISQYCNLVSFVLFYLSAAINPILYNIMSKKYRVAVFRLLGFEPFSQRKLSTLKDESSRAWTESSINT

SMILES | NanoBRET Fold Response (GHSR; GHSR, tracer 0.1μM) | NanoBRET Fold Response (GHSR; GHSR, tracer 1μM) | NanoBRET Fold Response (FPR3; FPR3, tracer 0.1μM) | NanoBRET Fold Response (FPR3; FPR3, tracer 1μM) | also measured
CN1CCN(C2=Nc3cc(Cl)ccc3Nc3ccc(CNC(=O)CCOCCOCCOCCOCCNC(=O)CCc4ccc5n4[B-](F)(F)[N+]4=C(c6ccc[nH]6)C=CC4=C5)cc32)CC1 [Clozapine-b-2-NB590] |  |  |  |  | NanoBRET Fold Response (GHSR; GHSR, 0.1μM tracer): 1.01; NanoBRET Fold Response (GHSR; GHSR, 1μM tracer): 1.03; NanoBRET Fold Response (FPR3; FPR3, 0.1μM tracer): 1.06; NanoBRET Fold Response (FPR3; FPR3, 1μM tracer): 1.23
CN(C)CCC=C1c2ccccc2CCc2ccc(C(=O)NCCNC(=O)CCOCCOCCOCCOCCNC(=O)CCc3ccc4n3[B-](F)(F)[N+]3=C(c5ccc[nH]5)C=CC3=C4)cc21 [Amitriptyline-b-2-NB590] |  |  |  |  | NanoBRET Fold Response (GHSR; [1]): 1.07; NanoBRET Fold Response (GHSR; [2]): 0.97; NanoBRET Fold Response (FPR3; [1]): 1.27; NanoBRET Fold Response (FPR3; [2]): 1.02
CCOC(=O)c1cc(C#N)c(N2CCC(C(=O)NS(=O)(=O)Cc3ccccc3/C=C/C(=O)NCCNC(=O)CCc3ccc4n3[B-](F)(F)[N+]3=C(c5ccc[nH]5)C=CC3=C4)CC2)nc1C [AZD1283-1-NB590] |  |  |  |  | NanoBRET Fold Response (GHSR; GHSR, 0.1μM): 1.01; NanoBRET Fold Response (GHSR; GHSR, 1μM): 1.04; NanoBRET Fold Response (FPR3; FPR3, 0.1μM): 1.08; NanoBRET Fold Response (FPR3; FPR3, 1μM): 1.06
CC(C)N(CC[C@H](c1ccccc1)c1cc(CCNC(=O)CCOCCOCCOCCOCCNC(=O)CCc2ccc3n2[B-](F)(F)[N+]2=C(c4ccc[nH]4)C=CC2=C3)ccc1O)C(C)C [Tolterodine-2-NB590] | 0.95 | 1.11 | 1.60 | 0.92 | 
CC(C)N(CC[C@H](c1ccccc1)c1cc(CCNC(=O)c2ccc(CNC(=O)CCc3ccc4n3[B-](F)(F)[N+]3=C(c5ccc[nH]5)C=CC3=C4)cc2)ccc1O)C(C)C [Tolterodine-BZ-NB590] | 1.00 | 1.06 | 0.71 | 0.93 | 
O=C(CCOCCOCCOCCOCCNC(=O)CCc1ccc2n1[B-](F)(F)[N+]1=C(c3ccc[nH]3)C=CC1=C2)NCCCN1CCN(C2=Nc3ccccc3Oc3ccc(Cl)cc32)CC1 [Loxapine-a-2-NB590] | 0.97 | 1.09 | 1.02 | 1.07 | 
CN1CCN(C2=Nc3cc(Cl)ccc3N(CC(=O)NCCOCCOCCOCCOCCNC(=O)CCc3ccc4n3[B-](F)(F)[N+]3=C(c5ccc[nH]5)C=CC3=C4)c3ccccc32)CC1 [Clozapine-c-2-NB590] |  |  |  |  | NanoBRET Fold Response (GHSR; GHSR, 0.1μM tracer): 1.00; NanoBRET Fold Response (GHSR; GHSR, 1μM tracer): 1.04; NanoBRET Fold Response (FPR3; FPR3, 0.1μM tracer): 1.08; NanoBRET Fold Response (FPR3; FPR3, 1μM tracer): 1.01
CN(C)CCC=C1c2ccccc2CCc2ccc(C(=O)NCCNC(=O)CCOCCOCCOCCOCCNC(=O)CCc3ccc4n3[B-](F)(F)[N+]3=C(c5ccc[nH]5)C=CC3=C4)cc21 [Amitriptyline-a-2-NB590] |  |  |  |  | NanoBRET Fold Response (GHSR; tracer at 0.1μM): 0.97; NanoBRET Fold Response (GHSR; tracer at 1μM): 1.04; NanoBRET Fold Response (FPR3; tracer at 0.1μM): 0.96; NanoBRET Fold Response (FPR3; tracer at 1μM): 1.07
Cc1nc2n(c(=O)c1CCN1CCC(c3noc4cc(F)ccc34)CC1)CCCC2OC(=O)NCCOCCOCCOCCOCCNC(=O)CCc1ccc2n1[B-](F)(F)[N+]1=C(c3ccc[nH]3)C=CC1=C2 (stereo not shown) [Risperidone-2-NB590] | 1.06 | 1.02 | 0.98 | 0.94 | 
COc1ccc2[nH]c(-c3ccc(CNC(=O)CCOCCOCCOCCOCCNC(=O)CCc4ccc5n4[B-](F)(F)[N+]4=C(c6ccc[nH]6)C=CC4=C5)cc3)c(CCNC(C)=O)c2n1 [AzomelatoninICO9-2-NB590] |  |  |  |  | NanoBRET Fold Response (GHSR; 0.1μM tracer): 0.89; NanoBRET Fold Response (GHSR; 1μM tracer): 0.90; NanoBRET Fold Response (FPR3; 0.1μM tracer): 1.46; NanoBRET Fold Response (FPR3; 1μM tracer): 1.02
COc1ccccc1N1CCN(CCCCN2C(=O)c3ccc(CNC(=O)CCOCCOCCOCCOCCNC(=O)CCc4ccc5n4[B-](F)(F)[N+]4=C(c6ccc[nH]6)C=CC4=C5)cc3C2=O)CC1 [NAN-190-2-NB590] | 1.01 | 1.02 | 1.00 | 0.74 | 
O=C(CCc1ccc2n1[B-](F)(F)[N+]1=C(c3ccc[nH]3)C=CC1=C2)NCCOCCOCCNC(=O)OCCOCCN1CCN(C2=Nc3ccccc3Sc3ccccc32)CC1 [Quetiapine-a-2-NB590] | 0.97 | 0.77 | 1.28 | 0.66 | 
O=C(CCOCCOCCOCCOCCNC(=O)CCc1ccc2n1[B-](F)(F)[N+]1=C(c3ccc[nH]3)C=CC1=C2)NCCCN1CCN(C2=Nc3cc(Cl)ccc3Nc3ccccc32)CC1 [Clozapine-a-2-NB590] |  |  |  |  | NanoBRET Fold Response (GHSR; GHSR, 0.1μM tracer): 0.95; NanoBRET Fold Response (GHSR; GHSR, 1μM tracer): 1.06; NanoBRET Fold Response (FPR3; FPR3, 0.1μM tracer): 0.92; NanoBRET Fold Response (FPR3; FPR3, 1μM tracer): 1.30
N#CN=C(NCCCOc1cccc(CN2CCCCC2)c1)NCCNC(=O)CCOCCOCCOCCOCCNC(=O)CCc1ccc2n1[B-](F)(F)[N+]1=C(c3ccc[nH]3)C=CC1=C2 [Aminopotentidine-2-NB590] | 0.98 | 1.07 | 1.21 | 1.13 | 
O=C(CCc1ccc2n1[B-](F)(F)[N+]1=C(c3ccc[nH]3)C=CC1=C2)NCc1ccc(C(=O)NCCOCCOCCNCC(O)COc2cccc3ccccc23)cc1 (stereo not shown) [Propranolol-3-NB590] |  |  |  |  | NanoBRET Fold Response (GHSR; GHSR, 0.1μM): 0.98; NanoBRET Fold Response (GHSR; GHSR, 1μM): 0.97; NanoBRET Fold Response (FPR3; FPR3, 0.1μM): 1.03; NanoBRET Fold Response (FPR3; FPR3, 1μM): 1.03
O=C(CCc1ccc2n1[B-](F)(F)[N+]1=C(c3ccc[nH]3)C=CC1=C2)NCc1ccc(C(=O)NCCOCCC(=O)N[C@@H]2CC[C@@]3(O)[C@H]4Cc5ccc(O)c6c5[C@@]3(CCN4CC3CC3)[C@H]2O6)cc1 [Naltrexone-3-NB590] | 1.01 | 0.90 | 0.82 | 0.92 | 
COc1ccccc1N1CCN(CCCCN2C(=O)c3ccc(CNC(=O)CCOCCNC(=O)c4ccc(CNC(=O)CCc5ccc6n5[B-](F)(F)[N+]5=C(c7ccc[nH]7)C=CC5=C6)cc4)cc3C2=O)CC1 [NAN-190-3-NB590] | 0.86 | 1.06 | 1.28 | 0.99 | 
Cc1cc2c(s1)Nc1ccccc1N=C2N1CCN(CCCNC(=O)CCOCCOCCOCCOCCNC(=O)CCc2ccc3n2[B-](F)(F)[N+]2=C(c4ccc[nH]4)C=CC2=C3)CC1 [Olanzapine-a-2-NB590] | 0.96 | 0.98 | 0.92 | 0.96 | 
CCCn1c(=O)c2[nH]c(-c3ccc(OCC(=O)NCCNC(=O)CCOCCNC(=O)c4ccc(CNC(=O)CCc5ccc6n5[B-](F)(F)[N+]5=C(c7ccc[nH]7)C=CC5=C6)cc4)cc3)nc2n(CCC)c1=O [XAC-3-NB590] | 1.07 | 1.02 | 0.78 | 1.04 | 
